From patent publication US20100093642A1, “NOVEL POLYPEPTIDES” (priority 2006, published 2010)
No end group written: not given here.

What was measured:
Pseudomonas aeruginosa = assay type: cell-based
Protocol: (§1) The antibacterial activities of the different peptides were determined by continuous monitoring of bacterial growth with a Bioscreen C microbiology reader (Labsystems Oy, Helsinki, Finland). The test was performed in 100-well flat-bottomed honeycomb plates, in which 50 μl of test fractions were incubated with 50 μl of a suspension of an actively growing culture of bacteria diluted in Mueller Hinton medium to a starting concentration of 3×10^4 cells per ml. […] [NT] 13032) and S. aureus (ATCC 9144), were chosen as test bacteria. […] Polymyxin B (Sigma, St.

[1] = test system: Listonella (Vibrio) anguillarum, serotype O2 (FT 1801); assay type: cell-based
Protocol: as §1

E. coli (ATCC 25922) = assay type: cell-based, Escherichia coli
Protocol: as §1

S. aureus (ATCC 9144) = assay type: cell-based, Staphylococcus aureus; conditions: ATCC 9144
Protocol: as §1

Penicillum rogveforti = experiment: Antifungal MIC; assay type: cell-based; conditions: filamentous fungi; more than 50% inhibition of visible growth, 48 h
Protocol: (§2) The various derivates of P17 (brominated and non-brominated) were tested for their ability to inhibit fungal growth of the yeast strains Saccaharomyces cerevisiae sp, Candida albicans (ATCC 10231) and Rodotorula sp., and the filamentous strains Botrytis cinerea 101, Penicillium rogveforti, and Fusarium sp. All strains, except C. albicans, were a gift from Prof. A. Tronsmo (The Norwegian University of Life Sciences, Ås, Norway). The fungi were cultivated on potato dextrose agar, supplemented with 2% glucose, at room temperature. Before antifungal testing, the fungi were dissolved in potato dextrose broth (Difco) at half-strength. Cell concentration was determined and adjusted after counting in a Bürker chamber. The filamentous fungi were filtered through a piece of cotton before counting. An aliquot of 50 μl of fungal spores (final concentration 2×10^5 spores per ml) were inoculated in microtiter plates (96 wells) along with 50 μl peptide solution. Peptides, dissolved in distilled water, were tested at final concentrations (two-fold dilutions) ranging from 50 μM to 0.1 μM. Cultures were grown in the dark (without shaking) and with a moist chamber at 25° C. (37° C. for C. albicans). Growth inhibition was determined microscopically after 48 h of incubation. MIC was determined as the lowest concentration of peptide resulting in 50% inhibition of visible growth.

Saccharomyces cerevisiae = conditions: 48 h
Protocol: as §2

Botrytis cinerea 101 = conditions: 48 h
Protocol: as §2

[2] = test system: Candida albicans (ATCC 10231); conditions: ATCC 10231, 48 h
Protocol: as §2

[3] = test system: C. glutamicum (ATCC 13032); assay type: cell-based, Corynebacterium glutamicum
Protocol: as §1

E. coli K-12 = experiment: Bacterial cell viability, lux luminescence and OD600, with or without LPS; assay type: cell-based, Escherichia coli; conditions: co-incubation with 2.5 μM Aeromonas salmonicida LPS
Excerpt: (§3) To evaluate the effect of antimicrobial peptides on the viability of bacteria in a fast and reliable manner we used the lux CDABE operon from Photorhabdus luminescens as a reporter system in gram negative test bacteria and the modified luxABCDE operon in S. aureus (Vesterlund et al. 2004). Bacterial bioluminescence is directly dependent on metabolic activity, since reduction equivalents are needed to drive light emission. Any form of interruption of bacterial cell integrity or metabolism will therefore be detected as a reduction in light emission.
(§4) For the assay we used S. aureus (RN4220), E. coli K-12 and Salmonella enterica serovar typhimurium (ATCC 14028) transformed with the respective lux-operon containing plasmids (Vesterlund et al. 2004).
(§5) For each experiment a fresh colony was picked from Luria-Bertani plates supplemented with 10 μg/ml of erythromycin in case of S. aureus and with 100 μg/ml of ampicillin in case of E. coli and S. enterica serovar Typhimurium. Each colony was suspended in 5 ml of Müller-Hinton medium with appropriate antibiotics. The culture was incubated over night at 37° C. in a shaking incubator. The next morning 0.5 ml of this culture was transferred to 30 ml fresh MH medium in an Erlenmeyer-flask supplemented with the respective antibiotic. The flask was incubated (200 rpm shaking; 37° C.) until an OD600 of 0.5-0.8 was reached. The culture was then diluted to an OD600 of about 0.02-0.03 before transfer to the 96 well opaque plates with optical bottom (Packard ViewPlate) used for the assay.
The synthesized peptides were dissolved in water and aliquots frozen at −18° C. until use. Twofold dilutions of test peptides (final concentrations ranging from 0.31 to 80 μM) were directly prepared in 96 well microtiter plates in a volume of 10 μl in water. 90 μl is of indicator bacteria in MH medium were added directly to the prepared and pre-warmed (30 minutes at 37° C.) plate before starting the measurement in a Victor multiplate reader (Perkin Elmer) at 37° C. Both OD600 and luminescence in counts per second (cps) were followed over 5 hours in measuring intervals of 5 minutes. The plates where shaken before each measurement (20 sec.; 5 mm orbital shaking; 10 sec waiting). The growth curves and light emission curves were drawn and evaluated to determine the MIC for each indicator strain. The MIC was defined as the concentration of test compound causing more than 50% reduction in bioluminescence (cps) or optical density (OD600) after 5 hours, compared to the growth control. Cecropin P1 was used as positive control. […]
A second plate with an otherwise similar setup (as described for the luminescence assay in example 3) was prepared, but with addition of Aeromonas salmonicida LPS to the peptide dilutions before pre-warming. […]

S. aureus = assay type: cell-based, Staphylococcus aureus
Protocol: (§6) The Gram-negative bacteria Listonella (Vibrio) anguillarum, serotype O2 (FT 1801, also coded as AL 104/LFI 6004), originally isolated from Atlantic salmon by staff of the Norwegian Veterinary Institute (Oslo, Norway), Escherichia con (ATCC 25922), and the Gram-positive bacteria Staphylococcus aureus (ATCC 9144) and Corynebacterium glutamicum (ATCC 13032) were used as test organisms. All isolates were grown at room temperature in Mueller Hinton Broth (MBB; Difco Laboratories, Detroit, U.S.A).
(§7) The antibacterial activities of the obtained HPLC fractions were determined by continuous monitoring of bacterial growth with a Bioscreen C microbiology reader (Labsystems Oy, Helsinki, Finland). The test was performed in 100-well flat-bottomed honeycomb plates, in which […] of test fractions were incubated with 50 μl of a suspension of an actively growing culture of bacteria diluted to a starting concentration of 5×10^3 cells per well. The growth chamber was maintained at 20° C. during the incubation period. The absorbance was measured at 2 h intervals for 48 h by a turbidometric method with vertical light photometry and a wide band filter (420-580 nm), which is more insensitive to colour change in the sample compared to single wavelength detection. Cecropin P1(0.5 μg/ml) was used as a positive control during these experiments. Antibacterial activity was determined when the optical density (OD) of the growth control (bacteria plus water) reached an absorbance of approximately 0.3. Fractions were regarded as active when the OD was less than 50% of the growth control.
(§8) The polypeptides of the present invention were isolated and subsequently tested for activity. A serial dilution method was employed to examine the antibacterial activity of the peptides. Two Gram-negative bacteria, L. anguillarum and E. coli, and two Gram-positive bacteria, C. glutamicum and S. aureus, were chosen as test bacteria. The polypeptides of the present invention were active against both Gram-positive and Gram-negative bacteria (table 4).

E. coli = assay type: cell-based, Escherichia coli
Protocol: as §6, §7, §8

C. glutamicum = assay type: cell-based, Corynebacterium glutamicum
Protocol: as §6, §7, §8

L. anguillarum = assay type: cell-based, Listonella (Vibrio) anguillarum
Protocol: as §6, §7, §8

[4] = test system: Salmonella enterica serovar typhimurium (ATCC 14028); experiment: Bacterial cell viability, lux luminescence and OD600, with or without LPS; assay type: cell-based; conditions: co-incubation with 2.5 μM Aeromonas salmonicida LPS
Excerpt: as §3, §4, §5
The synthesized peptides were dissolved in water and aliquots frozen at −18° C. until use. Twofold dilutions of test peptides (final concentrations ranging from 0.31 to 80 μM) were directly prepared in 96 well microtiter plates in a volume of 10 μl in water. 90 μl is of indicator bacteria in MH medium were added directly to the prepared and pre-warmed (30 minutes at 37° C.) plate before starting the measurement in a Victor multiplate reader (Perkin Elmer) at 37° C. Both OD600 and luminescence in counts per second (cps) were followed over 5 hours in measuring intervals of 5 minutes. The plates where shaken before each measurement (20 sec.; 5 mm orbital shaking; 10 sec waiting). The growth curves and light emission curves were drawn and evaluated to determine the MIC for each indicator strain. The MIC was defined as the concentration of test compound causing more than 50% reduction in bioluminescence (cps) or optical density (OD600) after 5 hours, compared to the growth control. Cecropin P1 was used as positive control. The results (table 14a-b) confirm the results obtained in example 2, showing a pronounced antibacterial effect of the longest peptide fragments. […] The partial peptides P17 HC (1-20), both bromated and unbromated, inhibit growth only in higher concentrations.
A second plate with an otherwise similar setup (as described for the luminescence assay in example 3) was prepared, but with addition of Aeromonas salmonicida LPS to the peptide dilutions before pre-warming. The LPS end concentration in each well was approximately 2.5 μM.

Sequence | Minimal inhibitory concentration, P. aeruginosa (Pseudomonas aeruginosa) [µM] | Minimal inhibitory concentration, L. anguillarum [1] [µM] | Minimal inhibitory concentration, E. coli (E. coli (ATCC 25922)) [µM] | Minimal inhibitory concentration, S. aureus (S. aureus (ATCC 9144)) [µM] | Minimal inhibitory concentration (MIC), Penicillum rogveforti (Penicillum rogveforti) [µM] | Minimal inhibitory concentration (MIC), Saccharomyces cerevisiae (Saccharomyces cerevisiae) [µM] | Minimal inhibitory concentration (MIC), Botrytis cinerea (Botrytis cinerea 101) [µM] | Minimal inhibitory concentration (MIC), Candida albicans [2] [µM] | Minimal inhibitory concentration, C. glutamicum [3] [µM] | MIC, more than 50% reduction in optical density, E. coli, P + LPS (E. coli K-12; OD600, 5 hours) [µM] | MIC, more than 50% reduction in luminescence, E. coli, P + LPS (E. coli K-12; luminescence (cps), 5 hours) [µM] | Minimal inhibitory concentration (MIC), S. aureus (S. aureus) [µM] | Minimal inhibitory concentration (MIC), E. coli (E. coli) [µM] | Minimal inhibitory concentration (MIC), C. glutamicum (C. glutamicum) [µM] | Minimal inhibitory concentration (MIC), L. anguillarum (L. anguillarum) [µM] | MIC, more than 50% reduction in optical density, S. enterica, P + LPS ([4]; OD600, 5 hours) [µM] | MIC, more than 50% reduction in luminescence, S. enterica, P + LPS ([4]; luminescence (cps), 5 hours) [µM]
DLRGACAAAHAL [P17 LC] | >100 | >100 | >100 | >100 | >100 | >100 | >100 | >100 | >100 |  |  |  |  |  |  |  | 
SWLSKTAKKLENSAKKRISEGIAIAIQGGPR [Cecropin P1, reference compound] |  |  |  |  |  |  |  |  |  | 20 | 20 | 12.5 | 1.2 | 1.6 | 1.2 | 10 | 10
